# Test results published in ChEMBL document CHEMBL1125149, “Quinazoline antifolate thymidylate synthase inhibitors: benzoyl ring modifications in the C2-methyl series” (J Med Chem, 1990).
# Experiments:
# [1] = system: L1210; assay: Growth inhibition of L1210 cells in culture.; format: functional, cell-based; conditions: Mus musculus
# [2] = molecular target: Thymidylate synthase (Mus musculus, UniProt P07607); assay: Inhibition of partially purified thymidylate synthase (TS)
# [3] = system: L1210; assay: (§1) Percent control for L1210 cell growth in the presence of thymidine (in vitro); format: functional, Mus musculus; set-up: concentration or dose not given beside the values
# [4] = system: L1210; assay: as §1; format: functional, Mus musculus
# Sequence of Thymidylate synthase (P07607 whole entry): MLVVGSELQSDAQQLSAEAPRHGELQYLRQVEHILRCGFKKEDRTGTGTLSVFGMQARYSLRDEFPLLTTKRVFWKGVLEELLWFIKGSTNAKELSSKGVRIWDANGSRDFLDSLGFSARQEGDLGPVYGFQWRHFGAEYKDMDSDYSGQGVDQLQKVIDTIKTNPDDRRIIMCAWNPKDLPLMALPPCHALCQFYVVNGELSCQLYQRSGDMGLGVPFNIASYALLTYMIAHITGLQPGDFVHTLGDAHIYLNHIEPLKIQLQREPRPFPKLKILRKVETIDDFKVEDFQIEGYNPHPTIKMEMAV
Compound,IC50 [1] [nM],IC50 [2] [nM],Control [3] [%],Control [4] [%]
CCN(Cc1ccc2nc(C)[nH]c(=O)c2c1)c1ccc(C(=O)N[C@@H](CCC(=O)O)C(=O)O)c([N+](=O)[O-])c1,1500,145,,
CCN(Cc1ccc2nc(C)[nH]c(=O)c2c1)c1ccc(C(=O)N[C@@H](CCC(=O)O)C(=O)O)c(N)c1,1300,310,,
C#CCN(Cc1ccc2nc(C)[nH]c(=O)c2c1)c1ccc(C(=O)N[C@@H](CCC(=O)O)C(=O)O)c(C(F)(F)F)c1,1200,480,,
C#CCN(Cc1ccc2nc(C)[nH]c(=O)c2c1)c1ccc(C(=O)N[C@@H](CCC(=O)O)C(=O)O)c(N)c1,360,290,,
Cc1nc2ccc(CN(CCN)c3ccc(C(=O)N[C@@H](CCC(=O)O)C(=O)O)c(F)c3)cc2c(=O)[nH]1,2700,11700,,
Cc1nc2ccc(CNc3ccc(C(=O)N[C@@H](CCC(=O)O)C(=O)O)cc3F)cc2c(=O)[nH]1,120,9340,86,
Cc1nc2ccc(CN(CCF)c3ccc(C(=O)N[C@@H](CCC(=O)O)C(=O)O)c(F)c3)cc2c(=O)[nH]1,130,43,98,
Cc1nc2ccc(CNc3ccc(C(=O)N[C@@H](CCC(=O)O)C(=O)O)c(F)c3)cc2c(=O)[nH]1,64,3780,94,
Cc1nc2ccc(CN(CCO)c3ccc(C(=O)N[C@@H](CCC(=O)O)C(=O)O)cc3F)cc2c(=O)[nH]1,85,3580,95,
Cc1nc2ccc(CN(CCCO)c3ccc(C(=O)N[C@@H](CCC(=O)O)C(=O)O)cc3F)cc2c(=O)[nH]1,170,980,,
Cc1nc2ccc(CN(CCCO)c3ccc(C(=O)N[C@@H](CCC(=O)O)C(=O)O)cc3)cc2c(=O)[nH]1,,,95,
Cc1nc2ccc(CN(CCCO)c3ccc(C(=O)N[C@@H](CCC(=O)O)C(=O)O)c(F)c3)cc2c(=O)[nH]1,30,590,95,
CCN(Cc1ccc2nc(C)[nH]c(=O)c2c1)c1ccc(C(=O)N[C@@H](CCC(=O)O)C(=O)O)c(F)c1,65,45,96,
CCN(Cc1ccc2nc(C)[nH]c(=O)c2c1)c1ccc(C(=O)N[C@@H](CCC(=O)O)C(=O)O)c(C)c1,1200,320,94,
Cc1nc2ccc(CN(CCF)c3ccc(C(=O)N[C@@H](CCC(=O)O)C(=O)O)cc3F)cc2c(=O)[nH]1,69,1750,,
C=CCN(Cc1ccc2nc(C)[nH]c(=O)c2c1)c1ccc(C(=O)N[C@@H](CCC(=O)O)C(=O)O)cc1F,140,5160,97,
CCN(Cc1ccc2nc(C)[nH]c(=O)c2c1)c1ccc(C(=O)N[C@@H](CCC(=O)O)C(=O)O)cc1F,86,680,96,
Cc1nc2ccc(CN(CCO)c3ccc(C(=O)N[C@@H](CCC(=O)O)C(=O)O)c(F)c3)cc2c(=O)[nH]1,70,78,,
CCN(Cc1ccc2nc(C)[nH]c(=O)c2c1)c1ccc(C(=O)N[C@@H](CCC(=O)O)C(=O)O)c(OC)c1,18000,190,,

Compound,IC50 [1] [nM],IC50 [2] [nM],Control [3] [%],Control [4] [%]
Cc1nc2ccc(CN(C)c3ccc(C(=O)N[C@@H](CCC(=O)O)C(=O)O)c(N)c3)cc2c(=O)[nH]1,760,860,,
CCN(Cc1ccc2nc(C)[nH]c(=O)c2c1)c1ccc(C(=O)N[C@@H](CCC(=O)O)C(=O)O)c(Cl)c1,870,120,,
C#CCN(Cc1ccc2nc(C)[nH]c(=O)c2c1)c1ccc(C(=O)N[C@@H](CCC(=O)O)C(=O)O)c(F)c1,,,97,
C#CCN(Cc1ccc2nc(C)[nH]c(=O)c2c1)c1ccc(C(=O)N[C@@H](CCC(=O)O)C(=O)O)cc1F,52,1430,102,
Cc1nc2ccc(CN(C)c3ccc(C(=O)N[C@@H](CCC(=O)O)C(=O)O)c(F)c3)cc2c(=O)[nH]1,19,120,98,
Cc1nc2ccc(CN(CC(N)=O)c3ccc(C(=O)N[C@@H](CCC(=O)O)C(=O)O)c(F)c3)cc2c(=O)[nH]1,800,1340,,
C=CCN(Cc1ccc2nc(C)[nH]c(=O)c2c1)c1ccc(C(=O)N[C@@H](CCC(=O)O)C(=O)O)c(F)c1,100,76,97,
C#CCN(Cc1ccc2nc(C)[nH]c(=O)c2c1)c1ccc(C(=O)N[C@@H](CCC(=O)O)C(=O)O)c([N+](=O)[O-])c1,400,130,,
Cc1nc2ccc(CN(C)c3ccc(C(=O)N[C@@H](CCC(=O)O)C(=O)O)c(C)c3)cc2c(=O)[nH]1,800,940,,
C#CCN(Cc1ccc2nc(C)[nH]c(=O)c2c1)c1ccc(C(=O)N[C@@H](CCC(=O)O)C(=O)O)c(O)c1,500,90,77,
Cc1nc2ccc(CN(CC#N)c3ccc(C(=O)N[C@@H](CCC(=O)O)C(=O)O)c(F)c3)cc2c(=O)[nH]1,34,170,90,
C#CCN(Cc1ccc2nc(C)[nH]c(=O)c2c1)c1ccc(C(=O)N[C@@H](CCC(=O)O)C(=O)O)c(C)c1,360,500,97,
C#CCN(Cc1ccc2nc(C)[nH]c(=O)c2c1)c1ccc(C(=O)N[C@@H](CCC(=O)O)C(=O)O)c(OC)c1,3000,67,95,
C#CCN(Cc1ccc2nc(C)[nH]c(=O)c2c1)c1ccc(C(=O)N[C@@H](CCC(=O)O)C(=O)O)c(Cl)c1,250,74,,
C=CCN(Cc1ccc2nc(C)[nH]c(=O)c2c1)c1ccc(C(=O)N[C@@H](CCC(=O)O)C(=O)O)cc1,,,104,
Cc1nc2ccc(CN(C)c3ccc(C(=O)N[C@@H](CCC(=O)O)C(=O)O)cc3)cc2c(=O)[nH]1,,,100,
C#CCN(Cc1ccc2nc(C)[nH]c(=O)c2c1)c1ccc(C(=O)N[C@@H](CCC(=O)O)C(=O)O)cc1,,,100,
CCN(Cc1ccc2nc(C)[nH]c(=O)c2c1)c1ccc(C(=O)N[C@@H](CCC(=O)O)C(=O)O)cc1,,,88,
Cc1nc2ccc(CN(C)c3ccc(C(=O)N[C@@H](CCC(=O)O)C(=O)O)cc3F)cc2c(=O)[nH]1,140,1140,,92
